Results taken from patent US5648355A, “Method of treatment of endogenous, painful gastrointestinal conditions of non-inflammatory, non-ulcerative origin” (priority 1994, dated 1997).
Entries after “also recorded” stand apart in the source; their conditions may differ. Counter-ions that a name gives are not always drawn. Like-named read-outs stand apart in the source and are kept apart here.

Key:
irritable bowel syndrome = test: patient treatment, irritable bowel syndrome; assay type: in vivo, human; settings: person; for pain: two months
mast cell = settings: effective dose causing 20% secretion; cited from earlier work
rat mucosal mast cell = test: inhibition of rat mucosal mast cell degranulation in vitro (histamine release); assay type: cell-based; settings: read-out: ID20 for histamine release
Description: It is not necessary to the operability of the present invention that each member of the foregoing classes inhibits mast cell degranulation to the same extent. The ability of a particular substance to inhibit mast cell degranulation can be readily determined empirically. Thus, mast cells from rats (pieces of small intestine) or humans (intestinal biopsies) can be obtained; otherwise, RBL cells or immortalized human mucosal-like mast cells (HMC-1) are kept in culture. Any of these cells then are exposed to various concentrations of a putative inhibitory compound, to allow for action by the putative inhibitor at critical sites. Efficacy with respect to inhibition of mast cell degranulation then is ascertained; that is, the intestinal biopsies, explants or cultured cells thus treated are used as such or washed free of unbound test compound before exposure to a stimulus known to induce mast cell degranulation. A compound suitable for use in accordance with the present invention is recognized as one that prevents the stimulus from causing degranulation, presumably by binding to specific receptors or by inactivating a crucial step in the degranulation process.
A pharmaceutically effective dose for a given mast cell degranulation-blocking agent can be approximated by its ID20, which is the dose necessary to cause 20% inhibition in mast cells when applied to mast cells stimulated in vitro.

[1] = tested on: rat basophilic leukemia (RBL) cells; settings: Kouretas et al. 1991; cited from earlier work
abdominal migraine [2] = settings: in vivo; cited from earlier work
[3] = tested on: gastrointestinal mast cells; settings: cited from earlier work
intracranial mast cells = settings: cited from earlier work
[4] = tested on: rat mast cell protease II (RMCPII); test: rat-immobilization assay, stress model, intestinal RMCPII; assay type: in vivo; settings: for rat intestinal RMCPII, pre-treated w/ ketotifen: 1 mg/kg i.p. twice daily for four days before immobilization, n = 3
Description: An assay by which efficacy of a mast cell degranulation-blocking agent can be tested systemically in the present context is the rat-immobilization assay, […] After the immobilization, a specific gastrointestinal mast cell mediator, rat mast cell protease II (RMCPII), is measured. This assay is accepted as a non-ulcerogenic model of stress. See Williams et al., Am. J. PhysioI. 253:582-86 (1987).
Ketotifen was administered intraperitoneally to rats (1 mg/kg body weight, twice daily) for four days prior to immobilization.

[5] = tested on: rat mucosal mast cell (MMC); test: RMCPII release from rat ileal explants, toxin A; assay type: cell-based; settings: for RMCPII released, Ketotifen + Toxin A: ketotifen 1 mg/kg twice daily intragastrically 4 days, toxin A 5 μg/ml, n = 6
Description: The following experiment was performed in order to evaluate rat mucosal mast cell (MMC) degranulation by measuring rat mast cell protease II (RMCPII), a specific marker for MMC, and by electron microscopy.
Rats were treated intragastrically for four (4) days with either 0.5 ml of saline containing ketotifen (1 mg/kg twice daily) or saline alone. On day five, the animals were euthanized, ileum was removed and ileal explants were placed in organ culture. The explants were incubated at 37° C. in a medium containing either 5 μg/ml of toxin A in 0.01 ml of 50 mM Tris buffer, or buffer alone. Aliquots (50 μl) of medium were collected at specified times and RMCPII levels were determined. Results are expressed in Table 4 as nanograms of RMCPII released per milligram of tissue wet weight (Pothoulakis et al., Gastroenterology 105:701-707, 1993).

Type 1 phosphatase (PP1) = settings: cited from earlier work
PP2A = settings: cited from earlier work
PP2B = settings: cited from earlier work
PP2C = settings: cited from earlier work
abdominal migraine [6] = test: patient treatment, abdominal migraine; assay type: in vivo, human; settings: person; 3 μg/day subcutaneous, four months
Description: A patient with a two-year history of abdominal migraine, experienced constant gastrointestinal pain which was considerably worse immediately premenstrually. After treatment with the Gn-RH analogue LUPRON (3 μg/day subcutaneous injection) for four months, they were symptom-free.

[7] = inhibitory dose causing 20% inhibition, rat mucosal mast cells in vitro

## OCCOCCN1CCN(C(c2ccccc2)c2ccc(Cl)cc2)CC1 (centres unmarked) [hydroxyzine hydrochloride]
Irritable bowel syndrome; 50 mg/day, three months
  gastrointestinal discomfort: almost completely eliminated
  professional and family responsibilities: able to resume their professional and family responsibilities
Irritable bowel syndrome; attempted withdrawal
  symptoms of irritable bowel syndrome on withdrawal: marked increase in symptoms of irritable bowel syndrome
Irritable bowel syndrome; resumed medication
  symptoms on resuming the medication: symptoms disappeared

## CC(CN1c2ccccc2Sc2ccccc21)N(C)C (centres unmarked) [Promethazine]
Mast cell
  ED20 for Histamine Release: 10^-4 M

## CNCCc1c[nH]cn1 [N^α -methyl histamine]
Rat mucosal mast cell; Rattus norvegicus
  IC20: 100 nM

## CC(=O)[C@H]1CC[C@H]2[C@@H]3CCC4=CC(=O)CC[C@]4(C)[C@H]3CC[C@]12C [progesterone]
[1]
  binding to RBL cells: bind

## CC(C)NCC(O)COc1cccc2ccccc12 (centres unmarked) [propranolol]
Abdominal migraine [2]
  effect in abdominal migraine: seem not to work

## OCCOCCN1CCN(C(c2ccccc2)c2ccc(Cl)cc2)CC1 (centres unmarked) [hydroxyzine pamoate]
Irritable bowel syndrome; 50 mg/day, 4 months
  professional activities: able to resume their professional activities
  symptoms of irritable bowel syndrome: noticeable improvement of their symptoms

## CN(C)CCOC(c1ccccc1)c1ccccc1 [Diphenhydramine]
Mast cell
  ED20 for Histamine Release: 10^-3 M

## O=C(O)c1cc(=O)c2c(OCC(O)COc3cccc4oc(C(=O)O)cc(=O)c34)cccc2o1 [disodium cromoglycate]
[3]
  inhibition of gastrointestinal / mucosal mast cells: the former but not the latter are inhibited; also recorded: do not have an inhibitory effect specifically on mucosal mast cells
Intracranial mast cells
  inhibition of intracranial mast cells: inhibited

## CC/C(=C(\c1ccccc1)c1ccc(OCCN(C)C)cc1)c1ccccc1 [tamoxifen citrate]
Irritable bowel syndrome; 40 mg/day orally
  pain: substantially eliminated their pain

## O=c1[nH]c2ccccc2n1CCCN1CCN(C(c2ccccc2)c2ccccc2)CC1 [Oxatomide]
Rat mucosal mast cell; [7]
  IC20: 100 nM

## CN(C)CCC(c1ccc(Cl)cc1)c1ccccn1 (centres unmarked) [Clorphenyramine]
Mast cell
  ED20 for Histamine Release: 10^-3 M

## CN1CCC(=C2c3ccccc3CC(=O)c3sccc32)CC1 [Ketotifen]
Rat mucosal mast cell; Rattus norvegicus
  IC20: 10000 nM
[4]; 60 min
  rat intestinal RMCPII, pre-treated w/ ketotifen: 0.5 ng/mL
[4]; 120 min, p < 0.001 vs. immobilized
  rat intestinal RMCPII, pre-treated w/ ketotifen: 0.8 ng/mL
[4]; rat-immobilization assay
  secretion of RMCPII during stress (in words): preventing secretion of RMCPII
[5]; 30 min
  RMCPII released, Ketotifen + Toxin A: 2.9 ± 1.0 nanograms of RMCPII released p
[5]; 60 min, p < 0.05 vs Toxin A
  RMCPII released, Ketotifen + Toxin A: 3.0 ± 1.1 nanograms of RMCPII released p
[5]; 120 min, p < 0.01 vs Toxin A
  RMCPII released, Ketotifen + Toxin A: 4.2 ± 0.9 nanograms of RMCPII released p
[5]; 180 min, p < 0.01 vs Toxin A
  RMCPII released, Ketotifen + Toxin A: 6.7 ± 1.9 nanograms of RMCPII released p
[5]; toxin A stimulus
  release of RMCPII from rat ileal explants (in words): effectively inhibits the release of RMCPII
Irritable bowel syndrome; 4 mg/day
  pain: their pain subsided significantly

## CN1CCC(=C2c3ccccc3CCc3cccnc32)CC1 [Azatadine]
Rat mucosal mast cell; [7]
  IC20: 100 nM

## C=C1[C@@H](O)[C@@H]2O[C@]3(CC[C@H](/C=C/[C@@H](C)[C@@H]4CC(C)=C[C@@]5(O[C@H](C[C@@](C)(O)C(=O)O)CC[C@H]5O)O4)O3)CC[C@H]2O[C@@H]1[C@@H](O)C[C@H](C)[C@H]1O[C@@]2(CCCCO2)CC[C@H]1C [okadaic acid]
Type 1 phosphatase (PP1)
  effect on PP1: inactivated
PP2A
  effect on PP2A: inhibited
PP2B
  effect on PP2B: inhibited
PP2C
  effect on PP2C: insensitive

## CCNC(=O)[C@@H]1CCCN1C(=O)[C@H](CCCNC(=N)N)NC(=O)[C@H](CC(C)C)NC(=O)[C@@H](CC(C)C)NC(=O)[C@H](Cc1ccc(O)cc1)NC(=O)[C@H](CO)NC(=O)[C@H](Cc1c[nH]c2ccccc12)NC(=O)[C@H](Cc1c[nH]cn1)NC(=O)[C@@H]1CCC(=O)N1 [LUPRON, leuprolide acetate]
Abdominal migraine [6]
  symptoms of abdominal migraine: symptom-free
